According to BigSolDB 2.1:

CC(=O)Oc1ccc(C(c2ccc(OC(C)=O)cc2)c2ccccn2)cc1
solubility (mole fraction)
Settings	273.15 K	278.15 K	283.15 K	288.15 K	293.15 K	298.15 K	303.15 K	308.15 K	313.15 K
in 1,4-dioxane	–	–	–	0.00241	0.00274	0.00307	0.00343	0.00378	0.00424
in DMF	0.00201	0.00228	0.00255	0.00291	0.00325	0.00368	0.00407	0.00447	0.00496
in NMP	0.00187	0.0021	0.00236	0.00264	0.00295	0.0033	0.00372	0.00418	0.00474
in acetone	0.00126	0.00153	0.00181	0.00212	0.00246	0.00281	0.00318	0.00359	0.00403
in acetonitrile	0.000983	0.00115	0.00136	0.0016	0.00185	0.00215	0.00243	0.00274	0.00308
in ethanol	4.5e-05	5.8e-05	7.5e-05	9.1e-05	0.00011	0.00013	0.000159	0.000194	0.00024
in ethyl acetate	0.000724	0.000884	0.00107	0.00126	0.00148	0.00171	0.00198	0.00228	0.00263
in isopropanol	3.8e-05	5.2e-05	6.5e-05	8.1e-05	9.8e-05	0.000118	0.000142	0.000166	0.000204
in methanol	4.9e-05	6.6e-05	8.1e-05	0.000101	0.000123	0.000147	0.000171	0.000207	0.000254
in n-butanol	7.1e-05	8.8e-05	0.000106	0.000131	0.00016	0.00019	0.000223	0.000269	0.000324
in n-propanol	5.6e-05	7.3e-05	9.2e-05	0.000115	0.000141	0.00017	0.000199	0.000242	0.000304
in toluene	0.00044	0.000533	0.000648	0.00076	0.000895	0.00105	0.00122	0.00141	0.00161
